The source made the active and inactive calls.
Experiments:
[1] = general mammalian cell viability loss – activator set, cherry-pick, cytotoxicity control for miR-122 modulator project, dose response (AID 720690); type: functional, cell-based;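 further: HEK293T human cells scored for general mammalian cytotoxicity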
[2] = growth inhibition of PfATP4-mutant resistant parasites – NITD609-resistant line, SYBR Green, dry powder, dose response (AID 1159571); type: functional, cell-based;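 further: parasites synchronized at ring stage by sorbitol before testing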
[3] = Dd2 malaria parasite growth inhibition potency – SYBR Green, dry powder samples, dose response (AID 1159566); type: functional, cell-based;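 further: potency for growth inhibition with lower SYBR green DNA signal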
[4] = growth inhibition of yeast DHODH-expressing 3D7 parasites – SYBR Green, dry powder samples, dose response (AID 1159570); type: functional, cell-based;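 further: parasite growth measured after 72 hours of compound exposure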
[5] = P. falciparum Dd2 growth inhibitors, dose response, SYBR Green, cherry-picked samples (AID 1159567); type: functional, cell-based
[6] = toxicity to human HepG2 hepatoma cells – cell-based, plate reader, dry powder samples, cytotoxicity control, dose response (AID 1159569); type: functional;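 further: inhibitor potency with signal falling toward the positive control level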
[7] = alpha-synuclein stem-loop luciferase translation blockers – H4 neuroglioma cells, luminescence, confirmation (AID 1988); type: functional, cell-based
[8] = luciferase reporter signal suppression in cells – H4 neuroglioma cells, luminescence, dose response (AID 1990); type: functional, cell-based
[9] = target: Arf-GAP with SH3 domain, ANK repeat and PH domain-containing protein 1 (Homo sapiens, UniProt Q9ULH1); type: functional;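 further: biochemical fluorescence polarization dose–response screen measuring inhibition of ASAP1; ASAP1 GAP domain stimulating GTP hydrolysis by truncated human ARF1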
[10] = Luminescence Cell-Based Dose Response HTS to Identify Inhibitors of 5'UTR Stem-Loop Driven Prion Protein mRNA Translation in H4 Neuroglioblastoma Cells. [Related pubchem assays: 1827 (Project Summary), 1813 (Primary HTS)]; type: functional
Major prion protein = Major prion protein (Homo sapiens, UniProt P04156); type: functional, cell-based
[11] = target: T1, Rac GTPase-activating protein 1 (Homo sapiens, UniProt Q9H0H5); test: blockers of MgcRacGAP-driven Rac1 GTP hydrolysis – biochemical, ADP Hunter fluorescence, primary and confirmatory, confirmation (AID 624330); type: functional
T1 sequence (Q9H0H5 whole entry): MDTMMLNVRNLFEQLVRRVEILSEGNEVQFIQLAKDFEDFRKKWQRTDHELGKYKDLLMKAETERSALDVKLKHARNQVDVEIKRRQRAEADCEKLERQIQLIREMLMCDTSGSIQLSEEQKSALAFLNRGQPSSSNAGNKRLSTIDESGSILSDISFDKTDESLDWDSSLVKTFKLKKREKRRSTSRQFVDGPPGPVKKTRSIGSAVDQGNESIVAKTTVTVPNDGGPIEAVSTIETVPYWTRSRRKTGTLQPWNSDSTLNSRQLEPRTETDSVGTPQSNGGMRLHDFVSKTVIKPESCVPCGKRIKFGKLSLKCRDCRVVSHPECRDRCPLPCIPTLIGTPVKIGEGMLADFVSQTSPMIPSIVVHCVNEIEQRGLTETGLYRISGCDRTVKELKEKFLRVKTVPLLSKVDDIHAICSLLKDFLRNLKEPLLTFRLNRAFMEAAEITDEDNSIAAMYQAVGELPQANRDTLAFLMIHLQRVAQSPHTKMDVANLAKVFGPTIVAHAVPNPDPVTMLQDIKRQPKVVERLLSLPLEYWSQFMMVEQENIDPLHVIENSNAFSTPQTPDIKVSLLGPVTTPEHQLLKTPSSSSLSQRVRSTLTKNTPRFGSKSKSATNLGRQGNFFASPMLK

cells [12] = test: cells
[13] = off-target signal loss in HeLa-CEM21 co-culture – HeLa F-luc CTL cells, cherry-picked, counter-screen for HIV-1 Env fusion inhibitor project, dose response (AID 652040); type: functional, cell-based;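 further: potency for signal decrease marking cytotoxic or nonspecific inhibition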
[14] = viability loss in CEM21 cells – cell-based, CellTiter-Glo luminescence, cherry-picked, cytotoxicity control for viral fusion inhibitor project, dose response (AID 652042); type: functional;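 further: potency for signal decrease meaning cytotoxicity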
[15] = blockers of HIV-1 ZM109 envelope-driven cell-cell fusion – HeLa effector, CEM target cells, luciferase, cherry-pick, dose response (AID 652058); type: functional, cell-based;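 further: luciferase signal from HIV-1 Env mediated cell-cell fusion of effector and target cells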
[16] = HIV-1 AD8 envelope cell-cell fusion blockers – cherry-pick, dose response (AID 652062); type: functional, cell-based;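 further: luciferase signal from cell-cell fusion driven by HIV-1 clade B AD8 Env; potency is for inhibitors of fusion seen as a drop in luminescence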
[17] = blockers of HIV-1 envelope-mediated cell-cell fusion – cherry-pick, dose response (AID 652057); type: functional, cell-based
[18] = target: T2, RNA-binding protein pos-1 (Caenorhabditis elegans, UniProt G5EF15); test: disruptors of C. elegans POS-1 RNA interaction – biochemical, fluorescence polarization, dose response (AID 1964);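 further: purified POS-1 fused to maltose binding protein made in E. coli; potency of compounds blocking POS-1 binding to fluorescent RNA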
T2 sequence (G5EF15 whole entry): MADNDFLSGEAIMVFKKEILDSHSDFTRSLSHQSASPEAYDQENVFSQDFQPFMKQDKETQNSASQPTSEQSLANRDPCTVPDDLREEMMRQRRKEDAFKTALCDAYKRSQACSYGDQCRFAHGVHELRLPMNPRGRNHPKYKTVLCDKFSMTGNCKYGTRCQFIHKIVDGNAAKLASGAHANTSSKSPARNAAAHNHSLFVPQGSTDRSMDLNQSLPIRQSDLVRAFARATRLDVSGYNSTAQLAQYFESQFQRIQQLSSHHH

[19] = Counterscreen for activators of the function of SWI/SNF related, matrix associated, actin dependent regulator of chromatin, subfamily a, member 2 (SMARCA2, BRM): Luminescence-based cell-based high throughput dose response assay to identify non-selective compounds using the VP16 reporter assay.; type: functional
[20] = target: SWI/SNF-related matrix-associated actin-dependent regulator of chromatin subfamily A member 2 (Homo sapiens, UniProt P51531); test: Luminescence-based cell-based high throughput dose response assay to identify activators of the function of SWI/SNF related, matrix associated, actin dependent regulator of chromatin, subfamily a, member 2 (SMARCA2, BRM).; type: functional
[21] = target: T3, Zinc finger protein mex-5 (Caenorhabditis elegans, UniProt Q9XUB2); test: potency of MEX-5 RNA-binding blockers – biochemical, C. elegans, fluorescence polarization, dose response (AID 1960)
T3 sequence (Q9XUB2 whole entry): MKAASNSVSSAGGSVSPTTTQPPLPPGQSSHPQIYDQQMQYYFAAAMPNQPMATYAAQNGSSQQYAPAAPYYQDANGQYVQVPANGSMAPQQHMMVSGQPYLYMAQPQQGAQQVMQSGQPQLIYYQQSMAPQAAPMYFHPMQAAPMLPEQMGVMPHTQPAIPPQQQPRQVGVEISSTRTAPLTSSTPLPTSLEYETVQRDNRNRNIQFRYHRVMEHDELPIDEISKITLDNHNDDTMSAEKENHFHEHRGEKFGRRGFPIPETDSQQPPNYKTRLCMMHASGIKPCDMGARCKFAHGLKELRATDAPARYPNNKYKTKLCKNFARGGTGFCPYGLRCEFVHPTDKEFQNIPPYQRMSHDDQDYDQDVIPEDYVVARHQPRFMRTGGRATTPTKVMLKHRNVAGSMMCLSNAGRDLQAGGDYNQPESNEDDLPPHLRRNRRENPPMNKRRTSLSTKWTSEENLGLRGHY

Vero = test: viability loss in Vero cells – cell-based, plate reader, cherry-pick samples, cytotoxicity control, dose response (AID 687020); type: functional; conditions: Chlorocebus sabaeus
[22] = toxicity to human hepatoma HepG2 cells – cell-based, cherry-picked samples, cytotoxicity control, dose response (AID 1159577); type: functional
H9c2 = test: cells; type: functional, cell-based; conditions: Rattus norvegicus, H9c2, Myocardium;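 further: confirmatory concentration-response retest of ultra-high-throughput screening hits for modulation of myocardial damage; cell death induced by hydrogen peroxide oxidative stress; compound pretreatment for 60 min then peroxide exposure for 2 h; potency is for protecting the cells against peroxide damage rather than for killing them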
[23] = target: NAD-dependent protein deacylase sirtuin-5, mitochondrial (Homo sapiens, UniProt Q9NXA8); test: blockers of sirtuin-5 peptide desuccinylation – biochemical, fluorescence imaging, cherry-pick, set 6, dose response (AID 720597)
Paired box protein Pax-8 = Paired box protein Pax-8 (Homo sapiens, UniProt Q06710); test: PAX8 transcriptional activity inhibition in RMG-I – RMG-I cells, luciferase, cherry-pick, dose response (AID 687027); type: functional, cell-based;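 further: luciferase reporter driven by Pax8 target thyroperoxidase promoter measured by SteadyGlo luminescence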
[24] = target: T4, Nuclear receptor subfamily 0 group B member 1 (Homo sapiens, UniProt P51843); type: functional, cell-based;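 further: HEK293T cells transfected with SF-1 and DAX-1 plus StAR promoter luciferase reporter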
T4 sequence (P51843 whole entry): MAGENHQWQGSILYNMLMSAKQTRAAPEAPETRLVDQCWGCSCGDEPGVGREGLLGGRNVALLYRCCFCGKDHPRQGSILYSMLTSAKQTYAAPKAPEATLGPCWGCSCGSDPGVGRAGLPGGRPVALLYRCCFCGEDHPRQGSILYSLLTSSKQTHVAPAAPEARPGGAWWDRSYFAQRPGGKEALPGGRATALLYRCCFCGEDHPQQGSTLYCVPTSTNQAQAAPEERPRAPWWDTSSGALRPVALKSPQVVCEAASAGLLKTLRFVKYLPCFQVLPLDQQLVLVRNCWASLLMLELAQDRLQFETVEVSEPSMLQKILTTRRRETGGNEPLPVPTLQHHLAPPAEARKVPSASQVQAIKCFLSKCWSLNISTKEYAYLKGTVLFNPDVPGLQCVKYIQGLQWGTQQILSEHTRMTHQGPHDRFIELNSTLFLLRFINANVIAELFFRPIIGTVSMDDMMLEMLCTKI

cells [25] = type: functional, cell-based
[26] = general cell-killing toxicity readout – plate reader, dry powder samples, cytotoxicity control for PAX8 inhibitor project, dose response (AID 743021); type: functional, cell-based
[27] = viability loss in HEK293 kidney cells – cell-based, cherry-picks, set 5, cytotoxicity control, dose response (AID 1053117); type: functional
[28] = OVCAR-3 cell viability loss – plate reader, dry powder samples, PAX8 inhibitor project, dose response (AID 743044); type: functional, cell-based
[29] = IGROV1 cell killing – plate reader, dry powder samples, PAX8 inhibitor project, dose response (AID 743043); type: functional, cell-based; conditions: IGROV-1
[30] = target: 1-phosphatidylinositol 4,5-bisphosphate phosphodiesterase gamma-1 (Homo sapiens, UniProt P19174); test: Counterscreen for inhibitors of phospholipase C isozymes (PLC-B3): Fluorescence-based biochemical high throughput dose response assay to identify inhibitors of phospholipase C isozymes (PLC-gamma1).
[31] = target: 1-phosphatidylinositol 4,5-bisphosphate phosphodiesterase beta-3 (Homo sapiens, UniProt Q01970); test: Fluorescence-based biochemical high throughput dose response assay to identify inhibitors of phospholipase C isozymes (PLC-B3).
HeLa = test: viability loss in HeLa cells – cell-based, ATP luminescence, cherry-pick samples, cytotoxicity control, dose response (AID 687004); type: functional; conditions: Homo sapiens

C[C@H]1CN([C@@H](C)CO)S(=O)(=O)c2ccc(C#Cc3ccccc3F)cc2O[C@@H]1CN(C)C(=O)c1ccc2c(c1)OCO2
AC50 [1]: 19.5 µM (active) | AC50 [2]: 1.71 µM (active) | AC50 [3]: 1.55 µM (active) | AC50 [4]: 2.06 µM (active) | AC50 [5]: 1.66 µM (active) | AC50 [6]: 33.7 µM (active)

NS(=O)(=O)c1ccc(CCNc2nc3c(-c4cccc(F)c4)nnn3c3ccccc23)cc1
EC50 [7]: > 120 µM (not active) | EC50 [8]: > 120 µM (not active) | IC50 [9]: 11.2 µM (inactive) | EC50 [10]: > 120 µM (not active)

CC(C)c1nc(SCC(=O)Nc2ccc(N(C)C)cc2)c2ccccc2n1
IC50 (Major prion protein): 2.94 µM (active) | IC50 [11]: 196 µM (active) | IC50 (cells [12]): 58.2 µM (inactive)

COC(=O)N1[C@H](C)C=C[C@]1(Cc1ccccc1)C(=O)NCCCNc1ncc(C(F)(F)F)cc1Cl
AC50 [13]: 6.96 µM (active) | AC50 [14]: 48.6 µM (active) | AC50 [15]: 6.11 µM (active) | AC50 [16]: 11.9 µM (active) | AC50 [17]: 3.42 µM (active)

CCCCNC(=O)c1cc2c(=O)n3cccc(C)c3nc2n(Cc2ccncc2)c1=N
EC50 [18]: 24.3 µM (inconclusive) | EC50 [19]: > 91.1 µM (inactive) | EC50 [20]: > 91.1 µM (inactive) | EC50 [21]: 39.6 µM (inconclusive)

N=C(N)NS(=O)(=O)c1ccc(NC(=S)NC(=O)c2ccc3c(c2)OCO3)cc1
IC50 (Major prion protein): 15.1 µM (inactive) | IC50 (cells [12]): > 138 µM (inactive)

Cc1ccc(C)c(NC(=O)CN2C(=O)C3CC=CCC3C2=O)c1 (stereo unspecified)
AC50 (Vero): 35.8 µM (active)

C[C@@H]1CN([C@@H](C)CO)C(=O)Cc2cc(NC(=O)Nc3ccc4c(c3)OCO4)ccc2O[C@H]1CN(C)Cc1ccc(Cl)c(Cl)c1
AC50 [15]: 21.8 µM (active) | AC50 [5]: 5.32 µM (active) | AC50 [22]: > 39 µM (inactive) | AC50 [16]: 25 µM (active) | AC50 [17]: 23.5 µM (active)

COc1cccc(NC(=O)COc2cccc3c2CCNC3=O)c1
AC50 (Vero): 37.2 µM (active) | IC50 (H9c2): > 79 µM (inactive)

CN(C)C(=O)c1cccc(-c2ccccc2[C@H]2[C@@H](C#N)N(C(=O)C3CC3)[C@@H]2CO)c1
AC50 [23]: > 32 µM (inactive)

COc1ccc(OC)c(-c2nnc3n2N=C(c2ccc(OC)c(OC4CCOC4)c2)CS3)c1 (stereo unspecified)
AC50 (Paired box protein Pax-8): 2.71 µM (active) | IC50 [24]: > 67.5 µM (inactive) | IC50 (cells [25]): > 67.5 µM (inactive)

CC1(C)CC(=O)C=C(C#CC2(O)CCCCC2)C1
AC50 (Paired box protein Pax-8): 4.34 µM (active) | AC50 [26]: 64.8 µM (active)

C[C@H](CO)N1C[C@H](C)[C@H](CN(C)C(=O)c2cccc(F)c2)Oc2ncc(-c3ccccc3)cc2C1=O
AC50 [27]: > 52 µM (inactive)

COc1ccc(-c2ccc([C@H]3[C@@H]4CN(S(=O)(=O)c5cccc(C)c5)C[C@H]3N4)cc2)cc1
AC50 [2]: 1.86 µM (active) | AC50 [3]: 2 µM (active) | AC50 [4]: 1.48 µM (active) | AC50 [5]: 1.99 µM (active) | AC50 [22]: > 39 µM (inactive) | AC50 [6]: 20.8 µM (active)

O=C(Nc1cccc(F)c1)N1CCCCN2[C@H](CO)[C@@H](c3ccc(-c4ccccc4F)cc3)[C@H]2C1
AC50 (Paired box protein Pax-8): 10.2 µM (active) | AC50 [28]: 21.9 µM (active) | AC50 [26]: 57.4 µM (active) | AC50 [29]: 50.9 µM (active)

O=Cc1ccc2noc(-c3ccc(Cl)cc3)c2c1
EC50 [19]: > 91.2 µM (inactive) | EC50 [20]: > 91.1 µM (inactive)

CCCC#Cc1ccc2c(c1)O[C@@H](CN(C)C(=O)Nc1ccccc1F)[C@H](C)CN([C@H](C)CO)S2(=O)=O
AC50 [23]: > 30 µM (inactive)

CC(C)(C)C1CCC(C(=O)Nc2ccccc2)CC1 (stereo unspecified)
IC50 [30]: > 122 µM (inactive) | IC50 [31]: > 122 µM (inactive)

Cc1ccc2nc(C)c3c(c2c1)OC(C(C)(Cl)Br)C3 (stereo unspecified)
AC50 (HeLa): > 52 µM (inactive)

C[C@@H]1CN([C@@H](C)CO)C(=O)c2cccc(NS(C)(=O)=O)c2O[C@@H]1CN(C)C(=O)Nc1ccc2c(c1)OCO2
AC50 (HeLa): 21.1 µM (active)
